Data from PubChem BioAssay AID1918931 (Molecular Pharmacology Branch, DTP, NCI, 2023).

Tested on: 138582-337-R-J1-PDC complex spheroid viability
Test: Anticancer human tumor 138582-337-R-J1-PDC patient-derived Merkel cell tumor cell line growth inhibition
Settings: for IC50: curve of first compound; for viability, T/C: stronger effect = lower value
Excerpt: Multicellular complex tumor spheroid response to LSD1 Inhibitor Iadademstat in combination with a variety of drugs and investigational agents in selected tumor cell lines
The current study was undertaken to assess response to LSD1 inhibitors in combination with standard-of-care drugs and investigational agents in solid tumor complex spheroid models as well as in the K-562 leukemia. Complex spheroids include a stromal component modeled by human endothelial cells (HUVEC) and fibroblasts modeled by human mesenchymal stem cells (MSCs). The concentration ranges selected for each drug and investigational agent were based upon clinically achievable concentrations if the clinical Cmax of the agent was known.
Compounds. The drugs and investigational agents used in this study are listed on Table 1. All of the agents used, including staurosporine (NSC755774) and gemcitabine (NSC613327), were obtained from the Developmental Therapeutics Program, NCI. FDA-approved anticancer drugs are available from the NCI at http://dtp.nci.nih.gov/branches/dscb/oncology_drugset_explanation.html. Drugs and investigational agents were >95% pure by proton nuclear magnetic resonance (NMR) and liquid chromatography/mass spectrometry (LC/MS). Stock solutions were prepared at 400x in DMSO, stored at -70 degrees C, and diluted in fresh medium prior to their use. The final concentration of DMSO in cell culture wells never exceeded 0.25% (v/v). The FDA-approved anticancer drug set is available from the Developmental Therapeutics Program at https://dtp.cancer.gov/organization/dscb/obtaining/available_plates.htm. All drugs and investigational agents were tested over a range starting from a high concentration at or near the clinical Cmax and decreasing in half-log increments. If the clinical Cmax for an agent had not been determined, the highest concentration tested was 10 microM.
Cell Lines. The patient-derived cancer cell (PDC) lines: 292921-168-R-J2-PDC, K24384-001-R-PDC, and 521955-158-R2-J5-PDC pancreatic carcinomas, 556581-035-R-J1 ovarian carcinoma, 324938-238-R-J1-PDC, 855422-203-R-J1-PDC and 883617-216-R-J1-PDC urothelial bladder carcinomas, 743489-274-T-PDC renal cell carcinoma, 138582-R-J1 Merkel cell tumor, K60290-347-R-J1 and K57222-313-R-J1-PDC glioblastomas, 653999-131-R-J2-PDC, LG0703-F948-PDC, and 349418-098-R-PDC non-small cell lung carcinomas, 885512-296-R-J2-PDC, 171881-019-R-J1-PDC breast carcinomas and 186277-243-T-J2-PDC and 233499-124-R-J2-PDC colon carcinomas were obtained from the NCI Patient-Derived Models Repository (PDMR, https://pdmr.cancer.gov). The established cell lines NCI/ADR-RES (RRID:CVCL_14520 and OVCAR-5 (RRID:CVCL_1628) ovarian carcinomas, 786-O (RRID:CVCL_1051) and A498 (RRID:CVCL_A498) renal cell carcinoma, NCI-H211 (ATCC, cat. CRL-5824; RRID:CVCL_1529), NCI-H196 (ATCC, cat. CRL-5823, RRID:CVCL_1509), SW 1271 (ATCC, cat. CRL-2177, RRID:CVCL_1716) and NCI-H1876 (ATCC, cat. CRL-5902, RRID:CVCL_1503) small cell lung carcinomas, MDA-MB-231 (RRID:CVCL_0062) and MDA-MB-468 (RRID:CVCL_0419)breast carcinomas (10-12). Pooled donor human umbilical vein endothelial cells (HUVEC, Lonza, cat. CC-2519) and human mesenchymal stem cells (hMSC, Lonza, cat. PT-2501) were purchased from Lonza (Walkersville, MD).
Cell Culture. All cells were maintained in an incubator at 37 degrees C and 5% CO2 with 95% humidity. The PDC lines were cultured according to standard operating procedures established by the NCI PDMR (https://pdmr.cancer.gov). Briefly all PDCs were thawed and cultured in Matrigel-coated flasks prepared with a working solution of 1X Ham's F-12 nutrient mix, without supplementation (Invitrogen, Waltham, MA, cat. 11765054), 100 U/mL penicillin-streptomycin (Invitrogen, cat. 15140122), and 2.5% Matrigel (Corning Inc., Corning, NY, cat. 354248) for the first three passages. […]
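Further: spheroids exposed to agents for 7 days.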
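Wherever viability, T/C is given: 100% = DMSO vehicle control viability.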

With COc1cc(C2c3cc4c(cc3C(OC3OC5COC(C)OC5C(O)C3O)C3COC(=O)C23)OCO4)cc(OC)c1O (stereo not given) + NC1CC1c1ccc(-c2cccc(O)c2)cc1 the IC50 (second compound 0.1 µM) was 762 nM, the IC50 (second compound 0.316 µM) was 690 nM and the IC50 (second compound 1 µM) was 559 nM. The IC50 (second compound 3.16 µM) was 767 nM, the IC50 (second compound 10 µM) was 265 nM and the viability, T/C (second compound 0.1 µM, first compound 0.00949 µM) was 60.8%. The viability, T/C (second compound 0.1 µM, first compound 0.03 µM) was 72.3%, the viability, T/C (second compound 0.1 µM, first compound 0.0949 µM) was 63% and the viability, T/C (second compound 0.1 µM, first compound 0.3 µM) was 48.5%. It also gave a viability, T/C (second compound 0.1 µM, first compound 0.949 µM) of 52.9%, a viability, T/C (second compound 0.1 µM, first compound 3 µM) of 36.7% and a viability, T/C (second compound 0.316 µM, first compound 0.00949 µM) of 67.1%. For the same compound, the viability, T/C (second compound 0.316 µM, first compound 0.03 µM) was 69.8%, the viability, T/C (second compound 0.316 µM, first compound 0.0949 µM) was 63.1% and the viability, T/C (second compound 0.316 µM, first compound 0.3 µM) was 51.1%. For the same compound, the viability, T/C (second compound 0.316 µM, first compound 0.949 µM) was 52.3%, the viability, T/C (second compound 0.316 µM, first compound 3 µM) was 29.9% and the viability, T/C (second compound 1 µM, first compound 0.00949 µM) was 76.8%. The viability, T/C (second compound 1 µM, first compound 0.03 µM) was 75.9%, the viability, T/C (second compound 1 µM, first compound 0.0949 µM) was 60.6% and the viability, T/C (second compound 1 µM, first compound 0.3 µM) was 53.2%. For the same compound, the viability, T/C (second compound 1 µM, first compound 0.949 µM) was 45%, the viability, T/C (second compound 1 µM, first compound 3 µM) was 40.7% and the viability, T/C (second compound 3.16 µM, first compound 0.00949 µM) was 69.7%. For the same compound, the viability, T/C (second compound 3.16 µM, first compound 0.03 µM) was 75.9%, the viability, T/C (second compound 3.16 µM, first compound 0.0949 µM) was 65.9% and the viability, T/C (second compound 3.16 µM, first compound 0.3 µM) was 51.8%. It also gave a viability, T/C (second compound 3.16 µM, first compound 0.949 µM) of 53.1%, a viability, T/C (second compound 3.16 µM, first compound 3 µM) of 31.6% and a viability, T/C (second compound 10 µM, first compound 0.00949 µM) of 71.2%. It also gave a viability, T/C (second compound 10 µM, first compound 0.03 µM) of 77.3%, a viability, T/C (second compound 10 µM, first compound 0.0949 µM) of 58.4% and a viability, T/C (second compound 10 µM, first compound 0.3 µM) of 50.1%. It also gave a viability, T/C (second compound 10 µM, first compound 0.949 µM) of 41.4% and a viability, T/C (second compound 10 µM, first compound 3 µM) of 37%.
For Nc1ncn(C2CC(O)C(CO)O2)c(=O)n1 (stereo not given) + NC1CC1c1ccc(-c2cccc(O)c2)cc1, the IC50 (second compound 0.1 µM) was > 1000 nM, the IC50 (second compound 0.316 µM) was > 1000 nM and the IC50 (second compound 1 µM) was > 1000 nM. The IC50 (second compound 3.16 µM) was > 1000 nM, the IC50 (second compound 10 µM) was > 1000 nM and the viability, T/C (second compound 0.1 µM, first compound 0.00316 µM) was 74%. For the same compound, the viability, T/C (second compound 0.1 µM, first compound 0.01 µM) was 92%, the viability, T/C (second compound 0.1 µM, first compound 0.0316 µM) was 94.5% and the viability, T/C (second compound 0.1 µM, first compound 0.1 µM) was 85.7%. For the same compound, the viability, T/C (second compound 0.1 µM, first compound 0.316 µM) was 77.8%, the viability, T/C (second compound 0.1 µM, first compound 1 µM) was 75.3% and the viability, T/C (second compound 0.316 µM, first compound 0.00316 µM) was 82.3%. It also gave a viability, T/C (second compound 0.316 µM, first compound 0.01 µM) of 98.7%, a viability, T/C (second compound 0.316 µM, first compound 0.0316 µM) of 108% and a viability, T/C (second compound 0.316 µM, first compound 0.1 µM) of 85.7%. For the same compound, the viability, T/C (second compound 0.316 µM, first compound 0.316 µM) was 85.3%, the viability, T/C (second compound 0.316 µM, first compound 1 µM) was 76.6% and the viability, T/C (second compound 1 µM, first compound 0.00316 µM) was 75.8%. For the same compound, the viability, T/C (second compound 1 µM, first compound 0.01 µM) was 109%, the viability, T/C (second compound 1 µM, first compound 0.0316 µM) was 98.1% and the viability, T/C (second compound 1 µM, first compound 0.1 µM) was 88.5%. It also gave a viability, T/C (second compound 1 µM, first compound 0.316 µM) of 83%, a viability, T/C (second compound 1 µM, first compound 1 µM) of 84.9% and a viability, T/C (second compound 3.16 µM, first compound 0.00316 µM) of 67.7%. For the same compound, the viability, T/C (second compound 3.16 µM, first compound 0.01 µM) was 119%, the viability, T/C (second compound 3.16 µM, first compound 0.0316 µM) was 113% and the viability, T/C (second compound 3.16 µM, first compound 0.1 µM) was 89.6%. It also gave a viability, T/C (second compound 3.16 µM, first compound 0.316 µM) of 87.8%, a viability, T/C (second compound 3.16 µM, first compound 1 µM) of 80.1% and a viability, T/C (second compound 10 µM, first compound 0.00316 µM) of 85.8%. It also gave a viability, T/C (second compound 10 µM, first compound 0.01 µM) of 99.2%, a viability, T/C (second compound 10 µM, first compound 0.0316 µM) of 118% and a viability, T/C (second compound 10 µM, first compound 0.1 µM) of 106%. It also gave a viability, T/C (second compound 10 µM, first compound 0.316 µM) of 113% and a viability, T/C (second compound 10 µM, first compound 1 µM) of 88.4%.
